Residues, ends and D or L forms follow the SMILES beside them.
What was measured:
Type in all cases: functional, cell-based
[1] = target: T1, Solute carrier family 15 member 1 (Homo sapiens) (UniProt P46059); experiment: TP_TRANSPORTER: inhibition of Gly-Sar uptake (Gly-Sar: 20 uM, Leu-Pro: 10000 uM) in PEPT1-expressing HeLa cells; design: scale not given: the % may be the effect or the level left
T1 sequence (whole entry): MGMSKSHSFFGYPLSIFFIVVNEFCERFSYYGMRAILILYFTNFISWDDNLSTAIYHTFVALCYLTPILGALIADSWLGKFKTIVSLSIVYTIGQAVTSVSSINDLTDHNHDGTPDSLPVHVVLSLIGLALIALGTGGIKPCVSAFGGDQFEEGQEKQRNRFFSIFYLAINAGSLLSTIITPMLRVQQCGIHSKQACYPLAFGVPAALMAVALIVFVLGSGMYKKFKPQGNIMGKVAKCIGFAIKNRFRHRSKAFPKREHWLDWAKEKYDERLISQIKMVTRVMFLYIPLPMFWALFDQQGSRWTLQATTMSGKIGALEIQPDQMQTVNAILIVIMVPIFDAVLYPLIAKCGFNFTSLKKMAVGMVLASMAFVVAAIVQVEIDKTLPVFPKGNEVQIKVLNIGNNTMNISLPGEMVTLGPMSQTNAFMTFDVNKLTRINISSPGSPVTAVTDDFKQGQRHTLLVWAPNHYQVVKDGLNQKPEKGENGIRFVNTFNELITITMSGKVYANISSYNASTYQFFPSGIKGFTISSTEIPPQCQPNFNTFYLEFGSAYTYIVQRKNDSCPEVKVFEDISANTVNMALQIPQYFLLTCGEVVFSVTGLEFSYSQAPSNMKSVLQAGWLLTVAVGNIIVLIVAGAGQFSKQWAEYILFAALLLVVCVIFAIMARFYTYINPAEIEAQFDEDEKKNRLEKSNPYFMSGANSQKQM

[2] = target: T1, Solute carrier family 15 member 1 (Homo sapiens); experiment: TP_TRANSPORTER: inhibition of Gly-Sar uptake (Gly-Sar: 20 uM, Gly-Gly-Ile: 10000 uM) in PEPT1-expressing HeLa cells; design: scale not given: the % may be the effect or the level left
[3] = target: T1, Solute carrier family 15 member 1 (Homo sapiens); experiment: TP_TRANSPORTER: inhibition of Gly-Sar uptake (Gly-Sar: 20 uM, Ala-Pro: 10000 uM) in PEPT1-expressing HeLa cells; design: scale not given: the % may be the effect or the level left
[4] = target: T1, Solute carrier family 15 member 1 (Homo sapiens); experiment: TP_TRANSPORTER: inhibition of Gly-Sar uptake (Gly-Sar: 20 uM, Gly-Pro: 10000 uM) in PEPT1-expressing HeLa cells; design: scale not given: the % may be the effect or the level left
[5] = target: T1, Solute carrier family 15 member 1 (Homo sapiens); experiment: TP_TRANSPORTER: inhibition of Gly-Sar uptake (Gly-Sar: 20 uM, Gly-Gly-Pro: 10000 uM) in PEPT1-expressing HeLa cells; design: scale not given: the % may be the effect or the level left
[6] = substrate: CN(CC(=O)O)C(=O)CN; experiment: TP_TRANSPORTER: uptake in PEPT1-expressing HeLa cells

CC(C)C[C@H](N)C(=O)N1CCC[C@H]1C(=O)O (H-Leu-Pro-OH)
Activity [1]: 8%

CC[C@H](C)[C@H](NC(=O)CNC(=O)CN)C(=O)O (H-Gly-Gly-Ile-OH)
Activity [2]: 10%

C[C@H](N)C(=O)N1CCC[C@H]1C(=O)O (H-Ala-Pro-OH)
Activity [3]: 8%

NCC(=O)N1CCC[C@H]1C(=O)O (H-Gly-Pro-OH)
Activity [4]: 7%

NCC(=O)NCC(=O)N1CCC[C@H]1C(=O)O (H-Gly-Gly-Pro-OH)
Activity [5]: 13%

B1: Solute carrier family 15 member 1 (Homo sapiens), P46059 (protein)
chain: MGMSKSHSFFGYPLSIFFIVVNEFCERFSYYGMRAILILYFTNFISWDDNLSTAIYHTFVALCYLTPILGALIADSWLGKFKTIVSLSIVYTIGQAVTSVSSINDLTDHNHDGTPDSLPVHVVLSLIGLALIALGTGGIKPCVSAFGGDQFEEGQEKQRNRFFSIFYLAINAGSLLSTIITPMLRVQQCGIHSKQACYPLAFGVPAALMAVALIVFVLGSGMYKKFKPQGNIMGKVAKCIGFAIKNRFRHRSKAFPKREHWLDWAKEKYDERLISQIKMVTRVMFLYIPLPMFWALFDQQGSRWTLQATTMSGKIGALEIQPDQMQTVNAILIVIMVPIFDAVLYPLIAKCGFNFTSLKKMAVGMVLASMAFVVAAIVQVEIDKTLPVFPKGNEVQIKVLNIGNNTMNISLPGEMVTLGPMSQTNAFMTFDVNKLTRINISSPGSPVTAVTDDFKQGQRHTLLVWAPNHYQVVKDGLNQKPEKGENGIRFVNTFNELITITMSGKVYANISSYNASTYQFFPSGIKGFTISSTEIPPQCQPNFNTFYLEFGSAYTYIVQRKNDSCPEVKVFEDISANTVNMALQIPQYFLLTCGEVVFSVTGLEFSYSQAPSNMKSVLQAGWLLTVAVGNIIVLIVAGAGQFSKQWAEYILFAALLLVVCVIFAIMARFYTYINPAEIEAQFDEDEKKNRLEKSNPYFMSGANSQKQM
Km [6]: 290 µM

Source: ChEMBL document CHEMBL2074255, “Human intestinal H+/peptide cotransporter. Cloning, functional expression, and chromosomal localization” (J Biol Chem, 1995)
